Test results: patent US12692254B2, “Benzimidazole inhibitors of PAD enzymes” (BRISTOL-MYERS SQUIBB COMPANY, priority 2018, dated 2026)

These compounds were tested against human PAD4 (hPAD4) (Homo sapiens, UniProt Q9UM07) (assay: RFMS human PAD4 functional assay (rapid-fire mass spectrum)). Settings: 5 nM hPAD4 enzyme, 250 μM BAEE, 50 μM Calcium; 30 min preincubation, 90 min reaction at 37° C.
Assay type: biochemical
How it was run: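 PAD4 (10 nM) preincubated 30 min with compound (top final 50 μM), then BAEE substrate added in pH 7.5 HEPES buffer with DTT, 50 μM calcium, TPEN; 90 min at 37° C. After TCA quench, citrulline derivatized with phenyl glyoxal (4 mM final, 30 min, 37° C) and quantified by RapidFire MS against internal standard.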

Sequence of human PAD4 (hPAD4) (Q9UM07 whole entry): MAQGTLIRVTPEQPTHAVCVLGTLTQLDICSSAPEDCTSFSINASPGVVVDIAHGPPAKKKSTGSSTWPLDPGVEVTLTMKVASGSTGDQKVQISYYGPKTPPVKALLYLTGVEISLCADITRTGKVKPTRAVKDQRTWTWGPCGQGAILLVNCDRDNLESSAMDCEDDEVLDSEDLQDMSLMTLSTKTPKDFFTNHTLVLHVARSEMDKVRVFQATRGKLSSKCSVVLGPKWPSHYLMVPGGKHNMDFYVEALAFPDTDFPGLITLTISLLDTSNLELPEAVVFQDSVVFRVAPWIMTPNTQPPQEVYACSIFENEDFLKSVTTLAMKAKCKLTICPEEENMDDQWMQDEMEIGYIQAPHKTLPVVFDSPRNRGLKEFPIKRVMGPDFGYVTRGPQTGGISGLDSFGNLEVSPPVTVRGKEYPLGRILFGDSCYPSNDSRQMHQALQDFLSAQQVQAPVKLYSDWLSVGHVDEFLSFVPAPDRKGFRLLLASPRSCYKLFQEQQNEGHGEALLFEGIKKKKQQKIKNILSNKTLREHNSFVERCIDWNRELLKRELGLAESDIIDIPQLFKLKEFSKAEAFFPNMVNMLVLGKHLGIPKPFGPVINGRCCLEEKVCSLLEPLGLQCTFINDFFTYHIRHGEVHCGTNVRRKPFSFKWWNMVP

SMILES | IC50
COc1cc(C(=O)N2C[C@H]3CC[C@@H]2[C@@H]3N)cc2nc(-c3cc4cccnc4n3CC3CC3)n(CC3CN(c4cccnc4C#N)C3)c12 [Example 36, 3-[3-({5-[(1R,4R,7R)-7-amino-2-azabicyclo[2.2.1]heptane-2-carbonyl]-2-[1-(cyclopropylmethyl)-1H-pyrrolo[2,3-b]pyridin-2-yl]-7-methoxy-1H-1,3-benzodiazol-1-yl}methyl)azetidin-1-yl]pyridine-2-carbonitrile] | 92 nM
COc1cc(C(=O)N2C[C@H]3CC[C@@H]2[C@@H]3N)cc2nc(-c3cc4cccnc4n3CC3CC3)n(CC3CN(c4ncncc4C#N)C3)c12 [Example 37, 4-[3-({5-[(1R,4R,7R)-7-amino-2-azabicyclo[2.2.1]heptane-2-carbonyl]-2-[1-(cyclopropylmethyl)-1H-pyrrolo[2,3-b]pyridin-2-yl]-7-methoxy-1H-1,3-benzodiazol-1-yl}methyl)azetidin-1-yl]pyrimidine-5-carbonitrile] | 93 nM
COc1cc(C(=O)N2CC3CCC2[C@@H]3N)cc2nc(-c3cc4cccnc4n3CC3CC3)n(CC3CN(c4cc(Cl)cnc4C#N)C3)c12 (stereo partly drawn) [Example 38, 3-[3-({5-[(1R,4R,7R)-7-amino-2-azabicyclo[2.2.1]heptane-2-carbonyl]-2-[1-(cyclopropylmethyl)-1H-pyrrolo[2,3-b]pyridin-2-yl]-7-methoxy-1H-1,3-benzodiazol-l-yl}methyl)azetidin-1-yl]-5-chloropyridine-2-carbonitrile] | 94 nM
COc1cc(C(=O)N2C[C@H]3CC[C@@H]2[C@@H]3N)cc2nc(-c3cc4cccnc4n3C)n(CC3CN(c4nccnc4C#N)C3)c12 [Example 39, 3-[3-({5-[(1R,4R,7R)-7-amino-2-azabicyclo[2.2.1]heptane-2-carbonyl]-7-methoxy-2-{1-methyl-1H-pyrrolo[2,3-b]pyridin-2-yl}-1H-1,3-benzodiazol-1-yl}methyl)azetidin-1-yl]pyrazine-2-carbonitrile] | 94 nM
COc1cc(C(=O)N2C[C@H]3CC[C@@H]2[C@@H]3N)cc2nc(-c3cc4cccnc4n3C)n(CC3CN(c4cncc(C#N)n4)C3)c12 [Example 40, 6-[3-({5-[(1R,4R,7R)-7-amino-2-azabicyclo[2.2.1]heptane-2-carbonyl]-7-methoxy-2-{1-methyl-1H-pyrrolo[2,3-b]pyridin-2-yl}-1H-1,3-benzodiazol-1-yl}methyl)azetidin-1-yl]pyrazine-2-carbonitrile] | 98 nM
COc1cc(C(=O)N2C[C@H]3CC[C@@H]2[C@@H]3N)cc2nc(-c3cc4ccccc4n3C)n(CC3CN(c4cncc(C#N)n4)C3)c12 [Example 41, 6-[3-({5-[(1R,4R,7R)-7-amino-2-azabicyclo[2.2.1]heptane-2-carbonyl]-7-methoxy-2-(1-methyl-1H-indol-2-yl)-1H-1,3-benzodiazol-1-yl}methyl)azetidin-1-yl]pyrazine-2-carbonitrile] | 100 nM
COc1cc(C(=O)N2C[C@H]3CC[C@@H]2[C@@H]3N)cc2nc(-c3cc4cc(Cl)ccc4n3C)n(CC3CN(c4ccnc(C#N)n4)C3)c12 [Example 42, 4-[3-({5-[(1R,4R,7R)-7-amino-2-azabicyclo[2.2.1]heptane-2-carbonyl]-2-(5-chloro-1-methyl-1H-indol-2-yl)-7-methoxy-1H-1,3-benzodiazol-1-yl}methyl)azetidin-1-yl]pyrimidine-2-carbonitrile] | 102 nM
COc1nccnc1N1CC(Cn2c(-c3cc4cccnc4n3CC3CC3)nc3cc(C(=O)N4C[C@H]5CC[C@@H]4[C@@H]5N)cc(OC)c32)C1 [Example 43, (1R,4R,7R)-2-{2-[1-(cyclopropylmethyl)-1H-pyrrolo[2,3-b]pyridin-2-yl]-7-methoxy-1-{[1-(3-methoxypyrazin-2-yl)azetidin-3-yl]methyl}-1H-1,3-benzodiazole-5-carbonyl}-2-azabicyclo[2.2.1]heptan-7-amine] | 103 nM
